Data from patent US20260200890A1, “ADAR1 INHIBITORS AND METHODS OF USING THE SAME” (AVAMMUNE THERAPEUTICS INC., priority 2022, published 2026).

The compounds below were run against T1, ADAR1 (Homo sapiens, UniProt P55265) (assay: ADAR1 Inhibition Assay (IFN fold-induction, Quanti-Luc luminescence, p110 KO A549 dual cells)). Conditions: IFN fold-induction vs DMSO, 24 and 48 h.
T1 construct: endogenous in cells; host or cells: p110 KO A549 dual cells
T1 sequence (P55265 1-1226): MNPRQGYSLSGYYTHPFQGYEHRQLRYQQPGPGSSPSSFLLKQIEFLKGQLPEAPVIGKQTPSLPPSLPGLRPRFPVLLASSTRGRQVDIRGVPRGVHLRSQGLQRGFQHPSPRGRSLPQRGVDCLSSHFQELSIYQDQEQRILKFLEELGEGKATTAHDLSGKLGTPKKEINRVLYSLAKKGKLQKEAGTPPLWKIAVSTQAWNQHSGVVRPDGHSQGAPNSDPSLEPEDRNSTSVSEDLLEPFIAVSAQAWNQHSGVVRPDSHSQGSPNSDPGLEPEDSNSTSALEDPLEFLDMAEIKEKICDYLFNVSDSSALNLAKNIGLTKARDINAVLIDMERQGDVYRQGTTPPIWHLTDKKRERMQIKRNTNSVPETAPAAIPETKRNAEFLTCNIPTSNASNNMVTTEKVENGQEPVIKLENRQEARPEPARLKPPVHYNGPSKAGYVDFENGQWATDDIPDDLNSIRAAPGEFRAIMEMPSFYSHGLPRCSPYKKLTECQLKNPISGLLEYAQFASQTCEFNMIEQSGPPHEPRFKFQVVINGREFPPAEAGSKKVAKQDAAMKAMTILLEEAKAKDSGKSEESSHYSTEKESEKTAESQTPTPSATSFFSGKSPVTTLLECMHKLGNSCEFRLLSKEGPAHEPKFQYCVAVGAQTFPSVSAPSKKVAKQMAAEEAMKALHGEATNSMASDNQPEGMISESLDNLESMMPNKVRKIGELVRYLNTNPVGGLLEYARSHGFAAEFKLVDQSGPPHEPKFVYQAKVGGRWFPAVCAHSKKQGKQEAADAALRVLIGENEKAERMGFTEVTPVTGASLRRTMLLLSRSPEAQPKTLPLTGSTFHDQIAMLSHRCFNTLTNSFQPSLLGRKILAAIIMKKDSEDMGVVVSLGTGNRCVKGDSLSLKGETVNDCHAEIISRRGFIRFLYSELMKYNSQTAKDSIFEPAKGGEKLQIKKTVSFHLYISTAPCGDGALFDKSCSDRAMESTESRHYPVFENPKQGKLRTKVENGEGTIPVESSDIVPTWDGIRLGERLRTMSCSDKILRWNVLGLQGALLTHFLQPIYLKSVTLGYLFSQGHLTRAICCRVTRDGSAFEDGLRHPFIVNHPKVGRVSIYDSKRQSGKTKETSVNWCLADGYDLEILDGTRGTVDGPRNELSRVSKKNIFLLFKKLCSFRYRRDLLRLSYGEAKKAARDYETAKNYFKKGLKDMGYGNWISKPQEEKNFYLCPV
Assay type: cell-based
Method: An ADAR1 Inhibition Assay was used to determine the biological activity (EC50) of compounds disclosed herein. 100 μL of p110 KO A549 dual cell suspension in supplemented DMEM (20,000 cells per well) was added into a flat bottom 96 well plate. Next day, post media change, 180 μL of supplemented DMEM was added. 20 μL of test compound or positive control was added to the respective wells (Final concentration of DMSO is 1%). The plate was incubated for 24 and 48 hours at 37° C. in a 5% CO2 incubator. After 24 and 48 h, 20 μL of cell suspension was taken in black well plates and 50 μL of Quanti-Luc was added to each well and luminescence was measured using a microplate reader (Spectra Max). IFN fold-induction was plotted considering DMSO as control using the relative luminescence unit (RLU) values. (Fold induction: Sample RLU/Average DMSO RLU).

SMILES	EC50 [µM]
CCOC(=O)c1cc(-c2ccccc2)sc1NC(=O)Cn1cc(CNC(=O)c2cccc(P(=O)(OCC)OCC)c2)nn1 [Compound 401]	> 100
CCOC(=O)c1cc(-c2ccc(P(=O)(OCC)OCC)cc2)sc1NC(=O)COC(=O)c1cccc(S(N)(=O)=O)c1 [Compound 429]	> 100
CCOC(=O)c1cc(-c2ccccc2)sc1NC(=O)C1CCCN1C(=O)c1cccc(P(=O)(OCC)OCC)c1 (centres unmarked) [Compound 383]	> 100
NS(=O)(=O)c1cccc(NC(=O)CNC(=O)c2ccc(-c3cccnc3)s2)c1 [Compound 19]	> 100
CCOC(=O)c1cc(-c2ccccc2)sc1NC(=O)N1CCN(C(=O)c2cccc(NS(C)(=O)=O)c2)CC1 [Compound 167]	> 100
CCOC(=O)c1cc(-c2ccccc2)sc1NC(=O)COC(=O)C1CCCN(S(C)(=O)=O)C1 (centres unmarked) [Compound 142]	> 100
CCOC(=O)c1cc(-c2ccccc2)sc1NC(=O)CC1CCN(C(=O)c2cccc(NS(C)(=O)=O)c2)CC1 [Compound 164]	> 100
CS(=O)(=O)Nc1cccc(C(=O)OCC(=O)n2cnc3cnc(N)nc32)c1 [Compound 200]	> 100
CCOC(=O)c1cc(-c2ccccc2)sc1NC(=O)Cn1cnc2cnc(N)nc21 [Compound 215]	> 100
CS(=O)(=O)Nc1cccc(C(=O)OCCNC(=O)c2csc(-c3ccccc3)c2)c1 [Compound 271]	> 100
CCOC(=O)c1cc(NC(=O)c2ccccc2)sc1NC(=O)COC(=O)c1cccc(NS(C)(=O)=O)c1 [Compound 263]	> 100
CCOC(=O)c1cc(-c2ccccc2)sc1NC(=O)COC(=O)Nc1cccc(NS(C)(=O)=O)c1 [Compound 166]	> 100
CCOC(=O)c1cc(-c2ccccc2)sc1NC(=O)COC(=O)c1ccc2ccn(S(C)(=O)=O)c2c1 [Compound 340]	> 100
CCOC(=O)c1cc(-c2ccccc2)sc1NC(=O)[C@H]1CCCN1C(=O)c1cccc(P(=O)(OCC)OCC)c1 [Compound 394]	> 100
CCOC(=O)c1cc(-c2ccccc2)sc1NC(=O)COC(=O)c1cccc(C(N)=O)c1 [Compound 50]	> 100
CCOC(=O)c1cc(-c2ccccc2)sc1NC(=O)C1CCN1C(=O)c1cccc(NS(C)(=O)=O)c1 (centres unmarked) [Compound 146]	> 100
CCOC(=O)c1cc(-c2ccc(OC(F)(F)F)cc2)sc1NC(=O)COC(=O)c1cccc(S(N)(=O)=O)c1 [Compound 73]	> 100
CCOC(=O)c1cc(-c2ccccc2)sc1NC(=O)C1CCN(C(=O)c2cccc(NS(=O)(=O)N3CCOCC3)c2)C1 (centres unmarked) [Compound 158]	> 100
CCOC(=O)c1cc(-c2ccccc2)sc1NC(=O)COC(=O)c1cccc(S(=O)(=O)NC(=O)CC)c1 [Compound 193]	> 100
COC(=O)c1nc(NC(=O)COC(=O)c2cccc(S(N)(=O)=O)c2)sc1-c1ccccc1 [Compound 57]	> 100
CCOC(=O)c1cc(-c2ccccc2)sc1N1C(=O)N(c2cccc(NS(C)(=O)=O)c2)C(C)(C)C1=O [Compound 233]	> 100
CCOC(=O)c1cc(-c2ccccc2)sc1NC(=O)CN1C(=O)CN(S(C)(=O)=O)C1=O [Compound 239]	> 100
CCOC(=O)c1cc(-c2ccccc2)sc1NC(=O)COC(=O)c1cc(NS(C)(=O)=O)ccc1F [Compound 129]	> 100
CS(=O)(=O)Oc1cccc(C(=O)OCC(=O)Nc2sc(-c3ccccc3)cc2C(N)=O)c1 [Compound 84]	> 100
CCOC(=O)c1cc(-c2ccccc2)sc1NC(=O)Cc1nc(-c2cccc(NS(C)(=O)=O)c2)no1 [Compound 216]	> 100

Results, then the compound that gave them:

EC50 [µM]	SMILES
> 100	CCOC(=O)c1cc(-c2ccccc2)sc1NC(=O)c1nn(-c2cccc(NS(C)(=O)=O)c2)c(=O)cc1C [Compound 273]
> 100	CCOC(=O)c1cc(-c2ccccc2)sc1NC(=O)COC(=O)c1cccc(NS(=O)(=O)c2ccc(C)cc2)c1 [Compound 102]
> 100	CCOC(=O)c1cc(-c2ccccc2)sc1NC(=O)COC(=O)c1ccc(F)c(S(N)(=O)=O)c1 [Compound 69]
> 100	CCOC(=O)c1cc(-c2ccccc2)sc1NC(=O)CNC(=O)c1cc(S(N)(=O)=O)ccc1F [Compound 56]
> 100	CCOC(=O)c1cc(-c2ccc(F)cc2)sc1NC(=O)C1CCCN1C(=O)c1cccc(NS(C)(=O)=O)c1 (centres unmarked) [Compound 119]
> 100	CCOC(=O)c1c(NC(=O)COC(=O)c2cccc(NS(C)(=O)=O)c2)sc2c1CCCC2 [Compound 89]
> 100	NS(=O)(=O)c1cccc(C(=O)NCC(=O)Nc2nc3ccccc3s2)c1 [Compound 23]
> 100	CCOC(=O)c1cc(-c2ccccc2)sc1NC(=O)CCNc1cccc(NS(C)(=O)=O)c1 [Compound 169]
> 100	Cc1cc(C#N)c(NC(=O)COC(=O)c2cccc(S(N)(=O)=O)c2)s1 [Compound 83]
> 100	CCOC(=O)c1cc(-c2ccccc2)sc1NC(=O)CCOc1cccc(NS(C)(=O)=O)c1 [Compound 276]
> 100	CCOC(=O)c1cc(-c2ccccc2)sc1NC(=O)CNC(=O)c1cccc(S(=O)(=O)NC(C)C)c1 [Compound 41]
> 100	CCOC(=O)c1cc(-c2ccccc2)sc1NC(=O)COC(=O)c1cccc(N)c1 [Compound 187]
> 100	CCOC(=O)c1cc(-c2ccccc2)sc1NC(=O)C1CC2(CC2)CN1C(=O)c1cccc(NS(C)(=O)=O)c1 (centres unmarked) [Compound 148]
> 100	CCOC(=O)c1cc(-c2ccccc2)sc1NC(=O)CN(C(=O)c1cccc(NS(C)(=O)=O)c1)C1CC1 [Compound 155]
> 100	CCOC(=O)c1cc(-c2ccccc2)sc1NC(=O)c1cccc(S(=O)(=O)NC)c1 [Compound 55]
> 100	NS(=O)(=O)c1cccc(C(=O)NCC(=O)Nc2ccc(-c3ccccc3)s2)c1 [Compound 18]

EC50 [µM]	SMILES
> 100	COC(=O)c1nc(NC(=O)COC(=O)c2cccc(S(N)(=O)=O)c2)sc1Br [Compound 9]
> 100	CCOC(=O)c1cc(-c2ccccc2)sc1NC(=O)C(C)(C)Nc1cccc(NS(C)(=O)=O)c1 [Compound 231]
> 100	CCOC(=O)c1cc(-c2ccncc2)sc1NC(=O)COC(=O)c1cccc(NS(C)(=O)=O)c1 [Compound 170]
> 100	CCOC(=O)c1cc(-c2ccccc2)sc1NC(=O)C1CCC(NC(=O)c2cccc(NS(C)(=O)=O)c2)CC1 (centres unmarked) [Compound 285]
> 100	CCOC(=O)c1cc(-c2ccccc2)sc1NC(=O)COC(=O)c1cccc(NS(C)(=O)=O)n1 [Compound 183]
> 100	CCOC(=O)c1cc(-c2ccccc2)sc1NC(=O)C1CN(C(=O)c2cccc(NS(C)(=O)=O)c2)CCO1 (centres unmarked) [Compound 224]
> 100	CCOC(=O)c1cc(-c2ccccc2F)sc1NC(=O)COC(=O)c1cccc(NS(C)(=O)=O)c1 [Compound 188]
> 100	COC(=O)c1cc(-c2ccncc2)sc1NC(=O)c1cccc(S(N)(=O)=O)c1 [Compound 33]
> 100	CCOC(=O)c1cc(-c2cc(F)cc(F)c2)sc1NC(=O)COC(=O)c1cccc(S(N)(=O)=O)c1 [Compound 52]
> 100	CCOC(=O)c1cc(-c2ccccc2)sc1NC(=O)CO/N=C/c1cccc(NS(C)(=O)=O)c1 [Compound 283]
> 100	CS(=O)(=O)Nc1cccc(C(=O)OCC(=O)Nc2sc(-c3ccccc3)cc2C(=O)NC2CC2)c1 [Compound 85]
> 100	CCOC(=O)c1ccc(-c2ccccc2)cc1NC(=O)COC(=O)c1cccc(NS(C)(=O)=O)c1 [Compound 120]
50 to 100	CCOC(=O)c1cc(-c2ccccc2)sc1NC(=O)COC(=O)c1cccc(Br)c1 [Compound 314]
≤ 25	CS(=O)(=O)Nc1cccc(C(=O)OCC(=O)Nc2nnc(-c3ccccc3)s2)c1 [Compound 153]
50 to 100	CCOC(=O)c1cc(-c2ccccc2)sc1NC(=O)C1CCN(C(=O)Cc2cccc(NS(C)(=O)=O)c2)C1 (centres unmarked) [Compound 333]
